{"source": "paper PMC7887336", "about": "“Altered functional properties of the codling moth Orco mutagenized in the intracellular loop-3” (Scientific Reports, 2021)", "key": {"[1]": {"molecular_target": "T1, CpomOrco^Q417H+OR3 (Cydia pomonella, UniProt H9A5M3)", "T1 construct": "variant as stated: Q417H", "T1 sequence (H9A5M3 1-426)": "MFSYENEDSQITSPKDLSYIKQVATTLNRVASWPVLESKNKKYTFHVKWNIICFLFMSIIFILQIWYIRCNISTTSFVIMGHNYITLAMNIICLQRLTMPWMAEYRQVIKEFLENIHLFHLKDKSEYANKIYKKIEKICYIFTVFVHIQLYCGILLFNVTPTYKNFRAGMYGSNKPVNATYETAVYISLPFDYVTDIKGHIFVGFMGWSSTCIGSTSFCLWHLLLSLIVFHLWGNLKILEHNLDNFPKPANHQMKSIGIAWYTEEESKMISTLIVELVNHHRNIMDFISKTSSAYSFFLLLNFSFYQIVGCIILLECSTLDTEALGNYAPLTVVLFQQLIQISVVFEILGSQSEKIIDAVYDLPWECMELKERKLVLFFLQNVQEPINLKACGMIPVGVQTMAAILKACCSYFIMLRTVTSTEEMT", "T1 sequence (H9A5M2 1-473 Q417H partner)": "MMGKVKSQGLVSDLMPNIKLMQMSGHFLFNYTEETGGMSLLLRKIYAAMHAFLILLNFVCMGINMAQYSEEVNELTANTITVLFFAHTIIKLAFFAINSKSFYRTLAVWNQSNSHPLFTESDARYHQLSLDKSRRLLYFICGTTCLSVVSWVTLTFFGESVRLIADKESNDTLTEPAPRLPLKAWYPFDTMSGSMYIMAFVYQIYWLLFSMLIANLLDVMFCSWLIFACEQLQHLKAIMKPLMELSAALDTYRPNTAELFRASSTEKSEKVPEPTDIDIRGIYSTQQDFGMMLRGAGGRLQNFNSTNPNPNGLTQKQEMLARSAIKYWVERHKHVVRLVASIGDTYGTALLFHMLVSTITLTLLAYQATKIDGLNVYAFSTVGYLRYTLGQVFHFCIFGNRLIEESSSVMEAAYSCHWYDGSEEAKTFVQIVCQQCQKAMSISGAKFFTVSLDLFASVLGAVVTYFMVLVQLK", "assay": "Calcium imaging of HEK293T cells co-expressing CpomOrco^Q417H and CpomOR3, pear ester stimulation", "assay_type": "cell-based", "method": "(§1) HEK293 cells lines (HEK293A/HEK293T) were grown in HEK cell media [Dulbecco's modified Eagle's medium containing 10% fetal bovine serum (MP Biomedicals, Solon, OH, USA), 2.0 mM L-glutamine, and 100 µg/mL penicillin/streptomycin (Invitrogen)] at 37 °C and 5% CO2. To test transient expression of wild type CpomOrco and CpomOrco^Q417H variant for calcium imaging and patch-clamp recording, 35-mm petri dishes containing semi-confluent HEK293A cells were transiently transfected. Cells were transfected with 0.6 µg of pcDNA40-DEST carrying the coding sequence of the CpomOrco variant (depending on the experiments). To report expression for calcium imaging experiments, 0.6 µg of a separate plasmid DNA [pEBFP2-Nuc, a gift from Robert Campbell (Addgene plasmid # 1489352)] carrying the coding sequence for a blue fluorescent protein (EBFP) was co-transfected. To report expression in patch-clamp recordings, 1.0 µg of a separate plasmid DNA (pXOOM, Clontech, Mountain View, CA, USA) carrying the coding sequence for a green fluorescent protein (GFP) was co-transfected. Expressions of fluorescent reporter genes were under the regulation of the same promoter for Cpom-genes (CMV). For specific experiments, co-transfections were conducted combining an additional 1.2 µg of pcDNA40-DEST/CpomOR3 or pcDNA40-DEST/CpomOR6a, as we previously described. Co-transfections with CpomOR3 were performed for dose–response experiments to pear ester: CpomOR3 was co-expressed with CpomOrco variants by the use of HEK293T (Fig. 3b); given the reported functional co-expression data of the CpomOrco + OR3 heteromers by the use of these specific cells. In brief, transfection DNAs were dissolved in 100 µL sterile DMEM, mixed with 3.0 µL Calfectin (SignaGen, Rockville, MD, USA) following the recommended protocol. Transfections were conducted overnight for up to 18 h, HEK cell media was replaced with 2.0 mL fresh media to incubate cells at 37 °C for up to 6–8 h, at which point part of the cell culture was spread in the middle of a 35-mm plate as individual cells or small clusters and rinsed at the sides with 2.0 mL fresh HEK media. After splitting, cells were allowed to recover for at least 1 day prior to calcium imaging. […]\n(§2) Fluorescence imaging was performed using settings optimized for Imaging Workbench 6 software (INDEC BioSystems, Santa Clara, CA, USA)[14]. […] Each cell was assigned a region of interest (ROI) and changes in fluorescence intensity within each ROI were measured and expressed as the fractional change in fluorescence intensity (dF). Stored time series image stacks were analysed off-line using Imaging Workbench 6, Clampfit 10.5 (Molecular Devices) and SigmaPlot 11 (Systat Software Inc., San Jose, CA, USA). […]"}, "[2]": {"molecular_target": "T2, CpomOrco+OR3 (Cydia pomonella, UniProt H9A5M3)", "T2 sequence (H9A5M3 1-426)": "T1 sequence (H9A5M3 1-426)", "T2 sequence (H9A5M2 1-473 partner)": "T1 sequence (H9A5M2 1-473 Q417H partner) with H417Q", "assay": "Calcium imaging of HEK293T cells co-expressing CpomOrco and CpomOR3, pear ester stimulation", "assay_type": "cell-based", "method": "as §1, §2"}}, "note": "Numbering of substitutions follows the chain as printed. Read-outs that look alike come from different tables or passages of the source."}
{"smiles": "CCCCC/C=C\\C=C\\C(=O)OCC", "note": "[pear ester, ethyl (E,Z)-2,4 decadienoate]", "values": [{"measurement": "Hill coefficient (cooperativity coefficient h)", "setting": "[1]", "value": "~ 4.6"}, {"measurement": "EC50", "setting": "[1]; Hill fit", "value": "~733", "unit": "µM"}, {"measurement": "maximum response (Hill fit of calcium response amplitudes)", "setting": "[1]; N = 262 cells", "value": "~3.7 ± 0.1 ∆F"}, {"measurement": "Hill coefficient (cooperativity coefficient h)", "setting": "[1]; listed as Pear ester", "value": "~ 4.6 ± 0.4"}, {"measurement": "Hill coefficient (cooperativity coefficient h)", "setting": "[2]", "value": "~ 4.6"}, {"measurement": "EC50", "setting": "[2]; Hill fit", "value": "~210", "unit": "µM"}, {"measurement": "maximum response (Hill fit of calcium response amplitudes)", "setting": "[2]; N = 160 cells", "value": "~ 6.6 ± 0.3 ∆F"}, {"measurement": "Hill coefficient (cooperativity coefficient h)", "setting": "[2]; listed as Pear ester", "value": "~ 4.6 ± 2.4"}]}
